What was measured:
Assay in all cases: NCI 60 single concentration growth inhibition
Type in all cases: cell-based, human
HOP-62 = conditions: HOP-62, Non-small cell lung cancer; for inhibition at 10 µM: Homo sapiens, read-out: GI%
Protocol: (§1) The synthesized dichlorobenzimidazoles 10a–p were assayed for their influence on divers cancer cell lines according to the method presented in the Additional file A.
(§2) 5. Screening of cytotoxic activity against a panel of sixty human tumor cell lines
(§3) The selected compounds by NCI were evaluated for their anticancer activity in a two-stage process. First, these compounds were screened against the full NCI 60 cell lines panel at a single high dose of 10 µM. Then, the output from the single dose screen is reported as a mean graph. […]
(§4) at five different minimal concentrations.
(§5) Assay protocol. The human tumor cell lines of the cancer screening panel are grown in RPMI 1640 medium containing 5% fetal bovine serum and 2 mM L-glutamine. For a typical screening experiment, cells are inoculated into 96 well microtiter plates in 100 µL at plating densities ranging from 5000 to 40,000 cells/well depending on the doubling time of individual cell lines. After cell inoculation, the microtiter plates are incubated at 37 °C, 5% CO 2, 95% air and 100% relative humidity for 24 h prior to addition of the experimental drugs.
(§6) After 24 h, two plates of each cell line are fixed in situ with TCA, to represent a measurement of the cell population for each cell line at the time of drug addition (Tz). The experimental drugs are solubilized in dimethyl sulfoxide at 400-fold the desired final maximum test concentration and stored frozen prior to use. At the time of drug addition, an aliquot of frozen concentrate is thawed and diluted to twice the desired final maximum test concentration with complete medium containing 50 µg/mL gentamicin. Additional four, 10-fold or ½ log serial dilutions are made to provide a total of five drug concentrations plus control.
(§7) Aliquots of […] of these different drug dilutions are added to the appropriate microtiter wells already containing […] of medium, resulting in the required final drug concentrations.
(§8) Following drug addition, the plates are incubated for an additional 48 h at 37 °C, 5% CO 2, 95% air, and 100% relative humidity. For adherent cells, the assay is terminated by the addition of cold TCA.
(§9) Cells are fixed in situ by the gentle addition of 50 µL of cold 50% (w/v) TCA (final concentration, 10% TCA) and incubated for 60 min at 4 °C. The supernatant is discarded, and the plates are washed five times with tap water and air dried. Sulforhodamine B (SRB) solution ([…]) at 0.4% (w/v) in 1% acetic acid is added to each well, and plates are incubated for 10 min at room temperature. After staining, unbound dye is removed by washing five times with 1% acetic acid and the plates are air dried. Bound stain is subsequently solubilized with 10 mM trizma base, and the absorbance is read on an automated plate reader at a wavelength of 515 nm. For suspension cells, the methodology is […]
(§10) the same except that the assay is terminated by fixing settled cells at the bottom of the wells by gently adding 50 µl of 80% TCA (final concentration, 16% TCA). Using the seven absorbance measurements [time zero, (Tz), control growth, (C), and test growth in the presence of drug at the five concentration levels (Ti)], the percentage growth is calculated at each of the drug concentrations […]
(§11) Percentage growth inhibition is calculated as: [(Ti Tz)/(C–Tz)] x 100 for concentrations for which Ti>/=Tz and [(Ti-Tz)/Tz] x 100 for concentrations for which Ti < Tz.
(§12) Three dose response parameters are calculated for each experimental agent. Growth […]
(§13) concentration resulting in a 50% reduction in the net protein increase (as measured by SRB staining) in control cells during the drug incubation. The drug concentration resulting in total growth inhibition (TGI) is calculated from Ti = Tz. […]
(§14) reduction in the measured protein at the end of the drug treatment as compared to that at the beginning) indicating a net loss of cells following treatment is calculated from [(Ti–Tz)/Tz] x 100 =
(§15) _50. Values are calculated for each of these three parameters if the level of activity is reached; […]

HL-60(TB) = conditions: Leukemia; for inhibition at 10 µM: Homo sapiens, read-out: GI%
Protocol: as §1, §2, §3, §4, §5, §6, §7, §8, §9, §10, §11, §12, §13, §14, §15

T-47D = conditions: Breast cancer; for inhibition at 10 µM: Homo sapiens, T47D, read-out: GI%
Protocol: as §1, §2, §3, §4, §5, §6, §7, §8, §9, §10, §11, §12, §13, §14, §15

UACC-257 = conditions: UACC-257, Melanoma; for inhibition at 10 µM: Homo sapiens, read-out: GI%
Protocol: as §1, §2, §3, §4, §5, §6, §7, §8, §9, §10, §11, §12, §13, §14, §15

OVCAR-5 = conditions: OVCAR-5, Ovarian cancer; for inhibition at 10 µM: Homo sapiens, read-out: GI%
Protocol: as §1, §2, §3, §4, §5, §6, §7, §8, §9, §10, §11, §12, §13, §14, §15

SF-539 = conditions: SF-539, CNS cancer; for inhibition at 10 µM: Homo sapiens, read-out: GI%
Protocol: as §1, §2, §3, §4, §5, §6, §7, §8, §9, §10, §11, §12, §13, §14, §15

786-0 = conditions: 786-0, Renal cancer; for inhibition at 10 µM: Homo sapiens, read-out: GI%
Protocol: as §1, §2, §3, §4, §5, §6, §7, §8, §9, §10, §11, §12, §13, §14, §15

CCRF-CEM = conditions: Leukemia; for inhibition at 10 µM: Homo sapiens, read-out: GI%
Protocol: as §1, §2, §3, §4, §5, §6, §7, §8, §9, §10, §11, §12, §13, §14, §15

HS 578T = conditions: Breast cancer; for inhibition at 10 µM: Homo sapiens, read-out: GI%
Protocol: as §1, §2, §3, §4, §5, §6, §7, §8, §9, §10, §11, §12, §13, §14, §15

UACC-62 = conditions: UACC-62, Melanoma; for inhibition at 10 µM: Homo sapiens, read-out: GI%
Protocol: as §1, §2, §3, §4, §5, §6, §7, §8, §9, §10, §11, §12, §13, §14, §15

MDA-MB-231/ATCC = conditions: Breast cancer; for inhibition at 10 µM: Homo sapiens, read-out: GI%
Protocol: as §1, §2, §3, §4, §5, §6, §7, §8, §9, §10, §11, §12, §13, §14, §15

HCT-116 = conditions: HCT-116, Colon cancer; for inhibition at 10 µM: Homo sapiens, read-out: GI%
Protocol: as §1, §2, §3, §4, §5, §6, §7, §8, §9, §10, §11, §12, §13, §14, §15

OVCAR-8 = conditions: OVCAR-8, Ovarian cancer; for inhibition at 10 µM: Homo sapiens, read-out: GI%
Protocol: as §1, §2, §3, §4, §5, §6, §7, §8, §9, §10, §11, §12, §13, §14, §15

CAKI-1 = conditions: CAKI-1, Renal cancer; for inhibition at 10 µM: Homo sapiens, read-out: GI%
Protocol: as §1, §2, §3, §4, §5, §6, §7, §8, §9, §10, §11, §12, §13, §14, §15

SK-MEL-28 = conditions: SK-MEL-28, Melanoma; for inhibition at 10 µM: Homo sapiens, read-out: GI%
Protocol: as §1, §2, §3, §4, §5, §6, §7, §8, §9, §10, §11, §12, §13, §14, §15

A498 = conditions: A498, Renal cancer; for inhibition at 10 µM: Homo sapiens, read-out: GI%
Protocol: as §1, §2, §3, §4, §5, §6, §7, §8, §9, §10, §11, §12, §13, §14, §15

SN12C = conditions: Renal cancer; for inhibition at 10 µM: Homo sapiens, read-out: GI%
Protocol: as §1, §2, §3, §4, §5, §6, §7, §8, §9, §10, §11, §12, §13, §14, §15

NCI-H23 = conditions: NCI-H23, Non-small cell lung cancer; for inhibition at 10 µM: Homo sapiens, read-out: GI%
Protocol: as §1, §2, §3, §4, §5, §6, §7, §8, §9, §10, §11, §12, §13, §14, §15

EKVX = conditions: Non-small cell lung cancer; for inhibition at 10 µM: Homo sapiens, read-out: GI%
Protocol: as §1, §2, §3, §4, §5, §6, §7, §8, §9, §10, §11, §12, §13, §14, §15

BT-549 = conditions: BT-549, Breast cancer; for inhibition at 10 µM: Homo sapiens, read-out: GI%
Protocol: as §1, §2, §3, §4, §5, §6, §7, §8, §9, §10, §11, §12, §13, §14, §15

ACHN = conditions: Renal cancer; for inhibition at 10 µM: Homo sapiens, read-out: GI%
Protocol: as §1, §2, §3, §4, §5, §6, §7, §8, §9, §10, §11, §12, §13, §14, §15

MCF7 = conditions: MCF7, Breast cancer; for inhibition at 10 µM: Homo sapiens, read-out: GI%
Protocol: as §1, §2, §3, §4, §5, §6, §7, §8, §9, §10, §11, §12, §13, §14, §15

## 3-(4-((2-(2-(5,6-Dichloro-2-(4-methoxyphenyl)-1H-benzo[d]imidazol-1-yl)acetyl)hydrazono)methyl)phenoxy)propanoic acid [Compound 10i]
HOP-62; 10 μM
  GI%: – (GI% < 5%)
HL-60(TB); 10 μM
  GI%: – (GI% < 5%)
T-47D; 10 μM
  GI%: 27.22%
UACC-257; 10 μM
  GI%: – (GI% < 5%)
OVCAR-5; 10 μM
  GI%: – (GI% < 5%)
SF-539; 10 μM
  GI%: – (GI% < 5%)
786-0; 10 μM
  GI%: 5.33%
CCRF-CEM; 10 μM
  GI%: 10.70%
HS 578T; 10 μM
  GI%: – (GI% < 5%)
UACC-62; 10 μM
  GI%: 10.17%
MDA-MB-231/ATCC; 10 μM
  GI%: 12.19%
HCT-116; 10 μM
  GI%: 11.45%
OVCAR-8; 10 μM
  GI%: – (GI% < 5%)
CAKI-1; 10 μM
  GI%: 10.19%
SK-MEL-28; 10 μM
  GI%: – (GI% < 5%)
A498; 10 μM
  GI%: – (GI% < 5%)
SN12C; 10 μM
  GI%: – (GI% < 5%)
NCI-H23; 10 μM
  GI%: 13.85%
EKVX; 10 μM
  GI%: 20.53%
BT-549; 10 μM
  GI%: 11.38%
ACHN; 10 μM
  GI%: 5.11%
MCF7; 10 μM
  GI%: 28.47%

## COc1ccc(-c2nc3cc(Cl)c(Cl)cc3n2CC(=O)NN=Cc2cccc(O)c2)cc1 [Compound 10a, 2-(5,6-Dichloro-2-(4-methoxyphenyl)-1H-benzo[d]imidazol-1-yl)-N'-(3-hydroxybenzylidene)acetohydrazide]
HOP-62
  inhibition at 10 µM: 24.1%
HL-60(TB)
  inhibition at 10 µM: 42.6%
T-47D
  inhibition at 10 µM: 69.7%
UACC-257
  inhibition at 10 µM: 57.7%
OVCAR-5
  inhibition at 10 µM: 20.5%
SF-539
  inhibition at 10 µM: 36.5%
786-0
  inhibition at 10 µM: 28.6%
CCRF-CEM
  inhibition at 10 µM: 40.6%
HS 578T
  inhibition at 10 µM: 36.9%
UACC-62
  inhibition at 10 µM: 40%
MDA-MB-231/ATCC
  inhibition at 10 µM: 20%
HCT-116
  inhibition at 10 µM: 59.6%
OVCAR-8
  inhibition at 10 µM: 29.5%
CAKI-1
  inhibition at 10 µM: 55%
SK-MEL-28
  inhibition at 10 µM: 39.3%
A498
  inhibition at 10 µM: 48.9%
SN12C
  inhibition at 10 µM: 31.3%
NCI-H23
  inhibition at 10 µM: 53.8%
EKVX
  inhibition at 10 µM: 76.6%
BT-549
  inhibition at 10 µM: 47.8%
ACHN
  inhibition at 10 µM: 40%
MCF7
  inhibition at 10 µM: 80.6%

## COC(=O)COc1ccc(C=NNC(=O)Cn2c(-c3ccc(OC)cc3)nc3cc(Cl)c(Cl)cc32)cc1 [Compound 10h, Methyl-2-(4-((2-(2-(5,6-dichloro-2-(4-methoxyphenyl)-1H-benzo[d]imidazol-1-yl)acetyl)hydrazono)methyl)phenoxy)acetate]
HOP-62
  inhibition at 10 µM: < 5%
HL-60(TB)
  inhibition at 10 µM: < 5%
T-47D
  inhibition at 10 µM: 107%
UACC-257
  inhibition at 10 µM: < 5%
OVCAR-5
  inhibition at 10 µM: < 5%
SF-539
  inhibition at 10 µM: 39.2%
786-0
  inhibition at 10 µM: 112%
CCRF-CEM
  inhibition at 10 µM: 28.1%
HS 578T
  inhibition at 10 µM: 72.2%
UACC-62
  inhibition at 10 µM: < 5%
MDA-MB-231/ATCC
  inhibition at 10 µM: 94.5%
HCT-116
  inhibition at 10 µM: 10.8%
OVCAR-8
  inhibition at 10 µM: 148%
CAKI-1
  inhibition at 10 µM: 5.89%
SK-MEL-28
  inhibition at 10 µM: 31.7%
A498
  inhibition at 10 µM: < 5%
SN12C
  inhibition at 10 µM: 66.4%
NCI-H23
  inhibition at 10 µM: < 5%
EKVX
  inhibition at 10 µM: < 5%
BT-549
  inhibition at 10 µM: 6.87%
ACHN
  inhibition at 10 µM: 106%
MCF7
  inhibition at 10 µM: 67.5%
